Values after ≈ are worked out from the molar mass of the structure shown. Where two headings read alike, the source gives them in different places.
What was measured:
HIV [1] = conditions: cited from earlier work
HIV-1 protease = biological target: T1, HIV-1 protease (Human immunodeficiency virus type 1 group M subtype B, UniProt P04585); assay: HPLC assay of proteolytic activity of recombinant HIV-1 protease (SQNYPIV substrate); type: biochemical; conditions: for Inhibition (inhibitory activity of compounds against HIV-1 protease) / inhibition at 17.9 µg/mL: 17.9 μg/ml, HPLC assay; for inhibition at 17.9 µg/mL: read-out: Inhibition (inhibitory activity of compounds against HIV-1 protease); for anti-HIV-1 protease activity (in words): 17.9 μg/ml (tested concentration)
T1 construct: Recombinant HIV-1 protease was prepared from the expression vector, PGEX-PR 107; made in house
Experimental: Recombinant HIV-1 protease was prepared from the expression vector, PGEX-PR 107, in E. coli DII5a and was purified according to the method established in Dr. Wan's laboratory.
The proteolytic activity of HIV-1 PR was measured by Dr. Wan's group at the Biochemistry Department using the synthetic heptapeptide Ser-Gln-Asn-Tyr-Pro-Ile-Val (SQNYPIV), corresponding to the p24-p17 cleavage site in the natural gag precursor, as substrate. The products of cleavage were analyzed by reversed-phase high-performance liquid chromatography (RP-HPLC, Ultrasphere ODS, 5μ, 4.6 mm×15 cm, Beckman, Calif., USA) with a 7-33% acetonitrile gradient in 0.1% trifluoroacetic acid (TFA). Product peak areas were integrated by a data system (Chromatopac C-R3A, Shimadzu, Japan) and compared with the standard peptide SQNY, which is expected to be generated from heptapeptide SQNYPIV after HIV-1 protease digestion. The extinction coefficient of the peptide SQNY was used to estimate the rate of proteolysis of the heptapeptide substrate. The assay was performed in a volume of 140 μl containing 90 pmole of substrate, 2 U of HIV-1 protease and compound solution in 0.1 M NaOAc buffer, pH 5.5, with 1 M (NH4)2 SO4, at 37° C. The reaction which proceeded for 2 h was terminated by the addition of 20 μl of aqueous 10% trifluoroacetic acid. The supernatant obtained by centrifuging at 12,000 rpm for 3 min was then analyzed by the hplc method. The unit of enzyme activity was defined as the amount of enzyme which yields 1 nmol of tetrapeptide SQNY under the above conditions in 1 min.
The proteolytic activity of HIV-1 protease inhibited by the compound was calculated as the activity of the control subtracting that of the sample, and then divided by itself.

HSV = conditions: cited from earlier work
[2] = HIV positive, ARC and AIDS individuals; cited from earlier work
HIV [3] = conditions: cited from earlier work; remark: listed apart in the source
HIV [4] = conditions: cited from earlier work; remark: listed apart in the source
HIV [5] = conditions: MT-4 cells, cited from earlier work
HIV [6] = conditions: MT-4 cells; cited from earlier work
[7] = tested on: HIV-specific antigen expression; conditions: MT-4 cells; cited from earlier work
[8] = tested on: HIV-infected Molt-4 clone No. 8 cells; conditions: cited from earlier work

## CC(C)[C@@H]1CC[C@]2(C(=O)O)CC[C@]3(C)C(CCC4[C@@]5(C)CC[C@H](O)C(C)(C)C5CC[C@]43C)C12 (stereo partly shown) [dihydrobetulinic acid]
HIV [1]
  inhibition of HIV replication (in words): potent inhibitors of HIV replication

## C=C(C)[C@@H]1CC[C@]2(C(=O)O)CC[C@]3(C)[C@H](CC[C@@H]4[C@@]5(C)CC[C@H](O)C(C)(C)[C@@H]5CC[C@]43C)[C@@H]12 [betulinic acid]
HIV [1]
  inhibition of HIV replication (in words): potent inhibitors of HIV replication

## C[C@@H]1CC[C@]2(C(=O)O)CC[C@]3(C)C(=CC[C@@H]4[C@@]5(C)C[C@@H](O)C(=O)C(C)(C)[C@@H]5CC[C@]43C)[C@@H]2[C@]1(C)O [Compound 1, 2α,19α-Dihydroxy-3-oxo-12-ursen-28-oic acid]
HIV-1 protease
  Inhibition (inhibitory activity of compounds against HIV-1 protease): 72.19%
  inhibition at 17.9 µg/mL: 72%

## O=Cc1cc(O)c(O)c(O)c1 [gallic aldehyde]
HSV
  anti-HSV activity (in words): strong anti-HSV activity

## C[C@@H]1CC[C@]2(C(=O)O)CC[C@]3(C)C(=CC[C@@H]4[C@@]5(C)CC[C@@H](O)C(C)(C)[C@@H]5CC[C@]43C)[C@@H]2[C@]1(C)O [Compound 3, 3α,19α-Dihydroxy-12-ursen-28-oic acid]
HIV-1 protease
  Inhibition (inhibitory activity of compounds against HIV-1 protease): 42.18%
  inhibition at 17.9 µg/mL: 42%

## Cc1cn([C@H]2C[C@H](N=[N+]=[N-])[C@@H](CO)O2)c(=O)[nH]c1=O [AZT, 3'-azido-3'-deoxythymidine]
[2]
  toxicity: frequently toxic, causing bone marrow suppression resulting in anemia leucopenia and thrombocytopenia

## CC(=O)[C@@H]1CC[C@]2(C(=O)O)CC[C@]3(C)[C@H](CC[C@@H]4[C@@]5(C)CC[C@H](O)C(C)(C)[C@@H]5CC[C@]43C)[C@@H]12 [platanic acid]
HIV [1]
  inhibition of HIV replication (in words): potent inhibitors of HIV replication

## C[C@@H]1CC[C@]2(C(=O)O)CC[C@]3(C)C(=CC[C@@H]4[C@@]5(C)C[C@@H](O)[C@@H](O)C(C)(C)[C@@H]5CC[C@]43C)[C@@H]2[C@]1(C)O [Compound 5, 2α,3α,19α-Trihydroxy-12-ursen-28-oic acid]
HIV-1 protease
  anti-HIV-1 protease activity (in words): did not show activity

## COc1c(O)cc2c(c1O)[C@@H]1O[C@H](CO)[C@@H](O)[C@H](O)[C@H]1OC2=O [bergenin]
HIV [3]; in vitro
  anti-HIV activity (in words): moderate anti-HIV activity

## O=C1O[C@@H]2[C@@H](O)[C@H](O)[C@@H](CO)O[C@H]2c2c1cc(O)c(O)c2O [norbergenin]
HIV [3]; IC50/EC50 basis not stated
  selectivity index: above 25
HIV [3]; in vitro anti-HIV
  EC50: 20 µg/mL (≈ 63.6 µM)
HIV [3]; in vitro
  IC50: over 500 μg/ml
  anti-HIV activity (in words): moderate anti-HIV activity

## COc1ccc(-c2cc(=O)c3c(O)cc(O[C@@H]4O[C@H](CO)[C@H](O)[C@H](O)[C@H]4O)cc3o2)cc1 [acacetin-7-O-β-D-galactopyranoside]
HIV [4]
  EC50: 8 µM
  IC50: 37 µM
  anti-HIV activity (in words): significant anti-HIV activity
  therapeutic index: 5

## CC1(C)[C@@H](O[C@H]2O[C@H](C(=O)O)[C@@H](O)[C@H](O)[C@H]2O[C@@H]2O[C@H](C(=O)O)[C@@H](O)[C@H](O)[C@H]2O)CC[C@]2(C)[C@H]3C(=O)C=C4[C@@H]5C[C@@](C)(C(=O)O)CC[C@]5(C)CC[C@@]4(C)[C@]3(C)CC[C@@H]12 [glycyrrhizin]
HIV [5]
  concentration at which HIV-induced plaque formation was inhibited: 0.6 mM
HIV [5]; read-out: 50% inhibitory dose, HIV-induced plaque formation
  IC50: 150 µM
HIV [6]
  concentration at which cytopathic effect of HIV was inhibited: 0.3 mM
[7]
  concentration at which HIV-specific antigen expression was inhibited: 0.6 mM
[8]
  inhibition of giant cell formation: inhibited giant cell formation

## geponin
HSV
  anti-HSV activity (in words): strong anti-HSV activity

## C[C@H]1[C@H](C)CC[C@]2(C(=O)O)CC[C@]3(C)C(=CC[C@@H]4[C@@]5(C)CC[C@H](O)C(C)(C)[C@@H]5CC[C@]43C)[C@H]12 [Compound 2, 3β-Hydroxy-12-ursen-28-oic acid]
HIV-1 protease
  Inhibition (inhibitory activity of compounds against HIV-1 protease): 85.07%
  inhibition at 17.9 µg/mL: 85%

## CC1(C)CC[C@]2(C(=O)O)CC[C@]3(C)C(=CC[C@@H]4[C@@]5(C)C[C@@H](O)[C@H](O)C(C)(C)[C@@H]5CC[C@]43C)[C@@H]2C1 [Compound 4, 2α,3β-Dihydroxy-12-oleanen-28-oic acid]
HIV-1 protease
  anti-HIV-1 protease activity (in words): most active
  inhibition at 17.9 µg/mL: 100%

## C[C@@H]1CC[C@]2(C(=O)O)CC[C@]3(C)C(=CC[C@@H]4[C@@]5(C)C[C@@H](O)[C@H](O)C(C)(C)[C@@H]5CC[C@]43C)[C@@H]2[C@]1(C)O [Compound 6, 2α,3β,19α-Trihydroxy-12-ursen-28-oic acid]
HIV-1 protease
  Inhibition (inhibitory activity of compounds against HIV-1 protease): 49.47%
  inhibition at 17.9 µg/mL: 49%
